Assay results reported in ChEMBL document CHEMBL1145702, “(+)-Angchibangkine, a new type of bisbenzylisoquinoline alkaloid, and other dimers from Pachygone dasycarpa” (J Nat Prod, 1997).
Values after ≈ are worked out from the molar mass of the structure shown.

Key:
Plasmodium falciparum [1] = experiment: Antiplasmodial activity against chloroquine-resistant Plasmodium falciparum W2 as [3H]hypoxanthine uptake; format: functional, organism-based
KB = experiment: Cytotoxicity against human KB cells; format: functional, cell-based
Plasmodium falciparum [2] = experiment: Antiplasmodial activity against chloroquine-sensitive Plasmodium falciparum D6 as [3H]hypoxanthine uptake; format: functional, organism-based

Row | Structure (SMILES) | IC50 (Plasmodium falciparum [1]) [µg/mL] | IC50 (KB) [µg/mL] | IC50 (Plasmodium falciparum [2]) [µg/mL]
1 | COc1ccc2cc1Oc1ccc(cc1)C[C@H]1c3c(cc(O)c4c3Oc3cc5c(cc3O4)CCN(C)[C@H]5C2)CCN1C | 0.063 (≈ 0.112 µM) | 3.4 (≈ 6.04 µM) | 0.0171 (≈ 0.0304 µM)
2 | COc1ccc2cc1Oc1ccc(cc1)C[C@H]1c3cc4c(cc3CCN1C)Oc1c(OC)cc3c(c1O4)[C@H](C2)N(C)CC3 | 0.204 (≈ 0.354 µM) | 5.9 (≈ 10.2 µM) | 0.326 (≈ 0.565 µM)
3 | COc1cc2c3c4c1Oc1cc5c(cc1O4)[C@H](Cc1ccc(cc1)Oc1cc(ccc1O)C[C@@H]3N(C)CC2)N(C)CC5 | 0.265 (≈ 0.471 µM) | 12 (≈ 21.3 µM) | 0.306 (≈ 0.544 µM)
